# Patent publication US20070043102A1, “Oral suspension of tegaserod” (priority 2003, published 2007)
# Assay: Stability study of the oral suspensions (HPLC assay and degradation products)
# Assay type: physicochemical
# Experimental: The stability study is performed for maximum 3 days at the storage conditions of room temperature (about 20-25° C.) and/or 5° C. ( fridge). The start point (TO) is performed about 1 minute after preparation. Furthermore, a “24 hours” and “3 days” time point at room temperature and 5° C. is performed.
# Analytical methods: For each time-point tested, the degradation products of Tegaserod by HPLC are evaluated. Analytical methods are based on Test Methods described below.
# Procedure for assay determination: For each time-point, one tablet is crushed according to the above procedure. The crushed tablet is transferred quantitatively into a 100 ml amber glass volumetric flask. 50 ml of the beverage is carefully added and the suspension is shaken vigorously by hand a few time and allowed to stand for the storage time tested. The suspension is re-homogenized, by shaking by hand. For extraction, the flask is filled to the mark with methanol (about 50 ml) then shaken for 30 minutes under magnetic stirring, sonicated for 10 minutes and shaken for 30 minutes under magnetic stirring. An aliquot of the methanol solution is centrifuged. The clear supernatant of the above solution is used as the test solution and is analyzed by HPLC (Isocratic HPLC on reversed phase RP-8 with UV detection). The same procedure is carried out once for each beverage but without tablet powder and the resulting chromatograms are compared for new appearance of any peak.
# Procedure for determination of degradation products: In order to enable to reach a sufficiently low limit to quantify the degradation products, the number of tablets to be crushed is increased. For each time-point, 6 tablets for 2 mg dosage strength (or 5 tablets for 6 mg dosage strength) are crushed according to the above procedure. The crushed tablet is transferred quantitatively into a 20 ml for 2 mg dosage strength (or 50 ml amber glass volumetric flask for 6 mg dosage strength). 10 ml for 2 mg dosage strength (or 25 ml for 6 mg dosage strength) of the beverage are added carefully. The suspension is shaken vigorously by hand a few time and is allowed to stand for the storage time tested. The suspension is re-homogenized by shaking by hand. For extraction, the flask is filled to the mark with acetonitrile and is shaken for 30 minutes under magnetic stirring, sonicated for 10 minutes and shaken for 30 minutes under magnetic stirring. An aliquot of the homogenized solution is centrifuged.
# The clear supernatant of the above solution is used as the test solution in order to quantify using a gradient HPLC on reversed phase RP-8 with UV detection. The same procedure is carried out once for each beverage but without crushed tablet and the resulting chromatograms are compared and analyzed according to the scheme below.
# Acceptance criteria: Tegaserod is assumed stable in the tested media if the following acceptance criteria are met for the time-points studied.
compound,measurement,setting,value
"CCCCCNC(=N)NN=Cc1c[nH]c2ccc(OC)cc12 [Tegaserod, 3-(5-methoxy-1H-indol-3-yl-methylene)-N-pentylcarbazimidamide]",time stable,"crushed tablet in apple juice, fridge (5° C.), 2 mg dosage strength",at least 24 hours
same,time stable,"crushed tablet in apple juice, fridge (5° C.), 6 mg dosage strength",up to 3 days
same,time stable,"crushed tablet in apple juice, room temperature",at least 1 hour
same,time stable,"crushed tablet in orange juice, fridge (5° C.), 2 mg dosage strength",at least 24 hours
same,time stable,"crushed tablet in orange juice, fridge (5° C.), 6 mg dosage strength",up to 3 days
same,time stable,"crushed tablet in orange juice, room temperature",at least 1 hour
same,time stable,"crushed tablet in water, fridge (5° C.), 2 mg dosage strength",at least 24 hours
same,time stable,"crushed tablet in water, fridge (5° C.), 6 mg dosage strength",up to 3 days
same,time stable,"crushed tablet in water, room temperature",at least 1 hour
